Molecular target: 5-hydroxytryptamine receptor 2B (Homo sapiens, UniProt P41595)
Experiment: Displacement of […] from human 5-HT2B receptor by competitive radioligand binding assay

5-hydroxytryptamine receptor 2B, sequence (P41595 whole entry): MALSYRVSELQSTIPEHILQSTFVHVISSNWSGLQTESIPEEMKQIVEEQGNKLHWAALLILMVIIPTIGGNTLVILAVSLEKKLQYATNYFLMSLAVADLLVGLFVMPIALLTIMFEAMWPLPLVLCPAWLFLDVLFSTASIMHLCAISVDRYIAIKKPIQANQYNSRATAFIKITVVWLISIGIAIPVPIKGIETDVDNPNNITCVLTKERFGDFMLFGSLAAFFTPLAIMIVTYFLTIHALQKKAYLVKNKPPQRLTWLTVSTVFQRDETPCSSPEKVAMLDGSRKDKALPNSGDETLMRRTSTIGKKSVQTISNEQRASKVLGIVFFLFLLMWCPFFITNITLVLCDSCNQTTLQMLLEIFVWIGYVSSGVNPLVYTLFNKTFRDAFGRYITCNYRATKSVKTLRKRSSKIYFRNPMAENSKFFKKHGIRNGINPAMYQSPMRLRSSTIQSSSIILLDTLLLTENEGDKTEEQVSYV

Ki: 25 nM
SMILES: CC(C)n1nc2c(c1-c1ccc(F)cc1)CCNCC2
